Reference: patent US10952992B2, “Methods of treating intraocular pressure with activators of Tie-2” (Aerpio Pharmaceuticals, Inc., priority 2015, dated 2021)
“And” between values parts separate entries of the source, which are not always exact repeats. Identical values can stand only once. Counter-ions that a name gives are not always drawn.

Test: Example 2 iris, retina, choroid and cornea tissue concentrations
Format: in vivo, male New Zealand White rabbits
Details: for Average / Conc. (ng/g) OD / Conc. (ng/g) OS / Conc. (ng/mL) OD / Conc. (ng/mL) OS: sodium salt; for Average Peak Concentration, Choroid / Average Peak Concentration, Cornea / Average Peak Concentration, Iris / Average Peak Concentration, Retina: solution
Protocol: To measure the concentration of Compound 1 in plasma and ocular tissues following topical ocular, subcutaneous, and intravitreal administration, New Zealand White rabbits were administered Compound 1, and plasma and ocular samples were collected at pre-determined time points. Compound 1 formulations were prepared fresh on each day of dosing.
Ocular tissue samples from both eyes of each animal were collected and weights were recorded. Plasma and ocular tissue sample concentrations of Compound 1 were determined by LC-MS/MS.
Animals were anesthetized for ocular (topical) and intravitreal dosing following the 12IA7 IACUC protocol. Each rabbit received a bolus dose of test formulation either via topical ocular administration 3 times daily on Days 1 and 2 (at 0, 6, and 12 hours), and once on Day 3 (at 0 hours) into both eyes; via intravitreal administration into both eyes once on Day 1 (at 0 hours); or via subcutaneous administration 2 times daily on Days 1 and 2 (at 0 and 8 hours) and once daily on Day 3 (at 0 hours). Doses were given within an approximately 1 hour window each day where applicable.
On Day 1, for intravitreal administration, or on Day 3, for topical ocular and subcutaneous administration, at the appropriate ocular tissue collection time points, animals were euthanized and both eyes were enucleated immediately. Following enucleation, each eye was rinsed with phosphate-buffered saline. Ocular tissue samples from both eyes of each animal were collected at predetermined time points and weights were recorded. All the samples were frozen immediately on dry ice, and stored at −60° C. to −80° C. pending bioanalysis.
An LC-MS/MS method was developed for the determination of Compound 1 in rabbit aqueous tissues (plasma, aqueous and vitreous humor) and solid ocular tissue samples. A pre-study standard curve was analyzed to determine the specificity, range, and lower limit of quantitation of the method. Plasma and tissue homogenate study samples were extracted and analyzed. All the samples were treated identically to the standards.
One eight-point standard curve was used in each analytical batch. To be accepted, each batch must have had at least five of eight standards with accuracy within ±20% of nominal, except at the lower limit of quantification (LLOQ), where ±25% was acceptable.

[1] = Choroid, 0.5 hr, subcutaneous 5 mg/kg/dose (Group 2)
[2] = Choroid, 1 hr, subcutaneous 5 mg/kg/dose (Group 2)
[3] = Choroid, 1 hr, topical ocular 1.2 mg/eye (Group 1)
[4] = Choroid, 2 hr, topical ocular 1.2 mg/eye (Group 1)
[5] = Choroid, 4 hr, subcutaneous 5 mg/kg/dose (Group 2)
[6] = Choroid, 4 hr, topical ocular 1.2 mg/eye (Group 1)
[7] = Cornea, 0.5 hr, subcutaneous 5 mg/kg/dose (Group 2)
[8] = Cornea, 0.5 hr, topical ocular 1.2 mg/eye (Group 1)
[9] = Cornea, 1 hr, subcutaneous 5 mg/kg/dose (Group 2)
[10] = Cornea, 1 hr, topical ocular 1.2 mg/eye (Group 1)
[11] = Cornea, 2 hr, subcutaneous 5 mg/kg/dose (Group 2)
[12] = Cornea, 4 hr, subcutaneous 5 mg/kg/dose (Group 2)
[13] = Cornea, 4 hr, topical ocular 1.2 mg/eye (Group 1)
[14] = Group 1: topical ocular 0.70 mg/kg/dose
[15] = Group 2: subcutaneous 5 mg/kg/dose
[16] = Group 4: intravitreal 1.55 mg/kg/dose
[17] = Iris, 0.5 hr, subcutaneous 5 mg/kg/dose (Group 2)
[18] = Iris, 0.5 hr, topical ocular 1.2 mg/eye (Group 1)
[19] = Iris, 1 hr, subcutaneous 5 mg/kg/dose (Group 2)
[20] = Iris, 4 hr, subcutaneous 5 mg/kg/dose (Group 2)
[21] = Iris, 4 hr, topical ocular 1.2 mg/eye (Group 1)
[22] = Retina, 0.5 hr, subcutaneous 5 mg/kg/dose (Group 2)
[23] = Retina, 0.5 hr, topical ocular 1.2 mg/eye (Group 1)

## COC(=O)N[C@@H](Cc1ccccc1)C(=O)N[C@@H](Cc1ccc(NS(=O)(=O)O)cc1)c1csc(-c2cccs2)n1 [Compound 1 sodium salt]
[1]
  Average: 266 ng/g
  Conc. (ng/g) OD: 264 ng/g and 282 ng/g
  Conc. (ng/g) OS: 282 ng/g and 235 ng/g
  Conc. (ng/mL) OD: 24.0 ng/mL and 25.6 ng/mL
  Conc. (ng/mL) OS: 25.6 ng/mL and 21.4 ng/mL
Choroid, 0.5 hr, topical ocular 1.2 mg/eye (Group 1)
  Average: 57.7 ng/g
[2]
  Average: 200 ng/g
  Conc. (ng/g) OD: 320 ng/g and 211 ng/g
  Conc. (ng/g) OS: 144 ng/g and 125 ng/g
  Conc. (ng/mL) OD: 29.1 ng/mL and 19.2 ng/mL
  Conc. (ng/mL) OS: 13.1 ng/mL and 11.4 ng/mL
[3]
  Average: 32.2 ng/g
  Conc. (ng/g) OD: 61.2 ng/g and 31.8 ng/g
  Conc. (ng/g) OS: 16.5 ng/g and 19.5 ng/g
  Conc. (ng/mL) OD: 5.56 ng/mL and 2.89 ng/mL
  Conc. (ng/mL) OS: 1.50 ng/mL and 1.77 ng/mL
Choroid, 2 hr, subcutaneous 5 mg/kg/dose (Group 2)
  Average: 68.8 ng/g
[4]
  Average: 59.2 ng/g
  Conc. (ng/g) OS: 43.9 ng/g and 64.5 ng/g
  Conc. (ng/mL) OS: 3.99 ng/mL and 5.86 ng/mL
[5]
  Average: 15.5 ng/g
  Conc. (ng/g) OD: 18.7 ng/g and 16.5 ng/g
  Conc. (ng/g) OS: 13.4 ng/g
  Conc. (ng/mL) OD: 1.70 ng/mL and 1.50 ng/mL
  Conc. (ng/mL) OS: 1.22 ng/mL
[6]
  Average: 165 ng/g
  Conc. (ng/g) OD: 27.8 ng/g and 52.1 ng/g
  Conc. (ng/g) OS: 81.1 ng/g
  Conc. (ng/mL) OD: 2.53 ng/mL and 4.74 ng/mL
[7]
  Average: 19.4 ng/g
  Conc. (ng/g) OS: 27.1 ng/g and 21.3 ng/g
  Conc. (ng/mL) OS: 2.46 ng/mL and 1.94 ng/mL
[8]
  Average: 1015 ng/g
  Conc. (ng/g) OD: 240 ng/g and 370 ng/g
  Conc. (ng/g) OS: 427 ng/g
  Conc. (ng/mL) OD: 21.8 ng/mL and 33.6 ng/mL
[9]
  Average: 31.1 ng/g
  Conc. (ng/g) OD: 26.1 ng/g and 23.4 ng/g
  Conc. (ng/g) OS: 25.3 ng/g
  Conc. (ng/mL) OD: 2.37 ng/mL and 2.13 ng/mL
  Conc. (ng/mL) OS: 4.52 ng/mL and 2.30 ng/mL
[10]
  Average: 548 ng/g
  Conc. (ng/g) OS: 482 ng/g and 532 ng/g
  Conc. (ng/mL) OS: 43.8 ng/mL and 48.4 ng/mL
[11]
  Average: 9.45 ng/g
  Conc. (ng/g) OD: 11.7 ng/g
  Conc. (ng/g) OS: 11.0 ng/g
Cornea, 2 hr, topical ocular 1.2 mg/eye (Group 1)
  Average: 1073 ng/g
[12]
  Average: 10.1 ng/g
  Conc. (ng/g) OD: 8.27 ng/g and 9.60 ng/g
  Conc. (ng/g) OS: 8.62 ng/g and 13.9 ng/g
  Conc. (ng/mL) OD: 0.752 ng/mL and 0.873 ng/mL
  Conc. (ng/mL) OS: 0.784 ng/mL and 1.26 ng/mL
[13]
  Average: 534 ng/g
  Conc. (ng/g) OD: 493 ng/g and 362 ng/g
  Conc. (ng/mL) OD: 44.8 ng/mL and 32.9 ng/mL
[14]
  Average Peak Concentration, Choroid: 57.7 ng/g
  Average Peak Concentration, Cornea: 1015 ng/g
  Average Peak Concentration, Iris: 24.3 ng/g
  Average Peak Concentration, Retina: 25.6 ng/g
[15]
  Average Peak Concentration, Choroid: 266 ng/g
  Average Peak Concentration, Cornea: 19.4 ng/g
  Average Peak Concentration, Iris: 459 ng/g
  Average Peak Concentration, Retina: 40.5 ng/g
[16]
  Average Peak Concentration, Choroid: 947375 ng/g
  Average Peak Concentration, Cornea: 71445 ng/g
  Average Peak Concentration, Iris: 351725 ng/g
  Average Peak Concentration, Retina: 774400 ng/g
[17]
  Average: 459 ng/g
  Conc. (ng/g) OD: 305 ng/g and 454 ng/g
  Conc. (ng/mL) OD: 27.7 ng/mL and 41.3 ng/mL
[18]
  Average: 24.3 ng/g
  Conc. (ng/g) OD: 28.1 ng/g and 18.7 ng/g
  Conc. (ng/g) OS: 17.8 ng/g and 32.5 ng/g
  Conc. (ng/mL) OD: 2.55 ng/mL and 1.7 ng/mL
  Conc. (ng/mL) OS: 1.62 ng/mL and 2.95 ng/mL
[19]
  Average: 94.7 ng/g
  Conc. (ng/g) OD: 125 ng/g and 99.2 ng/g
  Conc. (ng/g) OS: 97.6 ng/g and 56.4 ng/g
  Conc. (ng/mL) OD: 11.4 ng/mL and 9.02 ng/mL
  Conc. (ng/mL) OS: 8.87 ng/mL and 5.13 ng/mL
Iris, 1 hr, topical ocular 1.2 mg/eye (Group 1)
  Average: 55.2 ng/g
Iris, 2 hr, subcutaneous 5 mg/kg/dose (Group 2)
  Average: 29.7 ng/g
Iris, 2 hr, topical ocular 1.2 mg/eye (Group 1)
  Average: 51.9 ng/g
[20]
  Average: 30.4 ng/g
  Conc. (ng/g) OD: 33.8 ng/g
  Conc. (ng/g) OS: 34.1 ng/g
  Conc. (ng/mL) OD: 2.12 ng/mL and 3.07 ng/mL
[21]
  Average: 261 ng/g
  Conc. (ng/g) OD: 32.7 ng/g and 27.9 ng/g
  Conc. (ng/g) OS: 30.7 ng/g
  Conc. (ng/mL) OD: 2.97 ng/mL and 2.54 ng/mL
[22]
  Average: 40.5 ng/g
  Conc. (ng/g) OD: 30.5 ng/g and 34.9 ng/g
  Conc. (ng/g) OS: 48.0 ng/g and 48.7 ng/g
  Conc. (ng/mL) OD: 2.77 ng/mL and 3.17 ng/mL
  Conc. (ng/mL) OS: 4.36 ng/mL and 4.43 ng/mL
[23]
  Average: 25.6 ng/g
  Conc. (ng/g) OS: 33.7 ng/g and 33.1 ng/g
  Conc. (ng/mL) OS: 3.06 ng/mL and 3.01 ng/mL
